Results reported in ChEMBL document CHEMBL3045792, “Synthesis, antimicrobial activity, and molecular modeling of novel 4-(3-(4-benzylpiperazin-1-yl)propoxy)-7-methoxy-3-substituted phenyl-2H-chromen-2-one” (2013).
The source made the active and inactive calls. No cut-off for these calls is given here.

How the values were obtained:
Assay type in all cases: functional
Streptococcus pyogenes [1] = experiment: Antibacterial activity against Streptococcus pyogenes assessed as growth inhibition at 600 ug/ml by NCCLS […] method; settings: read-out: IZ
Klebsiella pneumoniae [2] = experiment: Antibacterial activity against Klebsiella pneumoniae assessed as growth inhibition at 900 ug/ml by NCCLS […] method; settings: read-out: IZ
Candida albicans [3] = experiment: Antifungal activity against Candida albicans assessed as growth inhibition at 1200 ug/ml; settings: read-out: IZ
Escherichia coli [4] = experiment: Antibacterial activity against Escherichia coli assessed as growth inhibition at 600 ug/ml by NCCLS […] method; settings: read-out: IZ
Candida albicans [5] = experiment: Antifungal activity against Candida albicans assessed as growth inhibition at 300 ug/ml; settings: read-out: IZ
Colletotrichum falcatum [6] = experiment: Antifungal activity against Glomerella tucumanensis assessed as growth inhibition at 600 ug/ml; settings: read-out: IZ
Fusarium oxysporum [7] = experiment: Antifungal activity against Fusarium oxysporum assessed as growth inhibition at 300 ug/ml; settings: read-out: IZ
Bacillus subtilis [8] = experiment: Antibacterial activity against Bacillus subtilis assessed as growth inhibition at 600 ug/ml by NCCLS […] method; settings: read-out: IZ
Proteus mirabilis [9] = experiment: Antibacterial activity against Proteus mirabilis assessed as growth inhibition at 600 ug/ml by NCCLS […] method; settings: read-out: IZ
Proteus mirabilis [10] = experiment: Antibacterial activity against Proteus mirabilis assessed as growth inhibition at 900 ug/ml by NCCLS […] method; settings: read-out: IZ
Fusarium oxysporum [11] = experiment: Antifungal activity against Fusarium oxysporum assessed as growth inhibition at 600 ug/ml; settings: read-out: IZ
Klebsiella aerogenes [12] = experiment: Antibacterial activity against Enterobacter aerogenes assessed as growth inhibition at 600 ug/ml by NCCLS […] method
Staphylococcus aureus [13] = experiment: Antibacterial activity against Staphylococcus aureus assessed as growth inhibition at 600 ug/ml by NCCLS […] method; settings: read-out: IZ
Bacillus pumilus [14] = experiment: Antibacterial activity against Bacillus pumilus assessed as growth inhibition at 600 ug/ml by NCCLS […] method; settings: read-out: IZ
Exserohilum rostratum [15] = experiment: Antifungal activity against Setosphaeria rostrata assessed as growth inhibition at 900 ug/ml; settings: read-out: IZ
Proteus vulgaris [16] = experiment: Antibacterial activity against Proteus vulgaris assessed as growth inhibition at 900 ug/ml by NCCLS […] method; settings: read-out: IZ
Fusarium oxysporum [17] = experiment: Antifungal activity against Fusarium oxysporum assessed as growth inhibition at 1200 ug/ml; settings: read-out: IZ
Klebsiella pneumoniae [18] = experiment: Antibacterial activity against Klebsiella pneumoniae assessed as growth inhibition at 600 ug/ml by NCCLS […] method; settings: read-out: IZ
Priestia megaterium [19] = experiment: Antibacterial activity against Bacillus megaterium assessed as growth inhibition at 900 ug/ml by NCCLS […] method; settings: read-out: IZ
Streptococcus pyogenes [20] = experiment: Antibacterial activity against Streptococcus pyogenes assessed as growth inhibition at 900 ug/ml by NCCLS […] method; settings: read-out: IZ
Bacillus subtilis [21] = experiment: Antibacterial activity against Bacillus subtilis assessed as growth inhibition at 900 ug/ml by NCCLS […] method; settings: read-out: IZ
Staphylococcus aureus [22] = experiment: Antibacterial activity against Staphylococcus aureus assessed as growth inhibition at 900 ug/ml by NCCLS […] method; settings: read-out: IZ
Exserohilum rostratum [23] = experiment: Antifungal activity against Setosphaeria rostrata assessed as growth inhibition at 300 ug/ml; settings: read-out: IZ
Priestia megaterium [24] = experiment: Antibacterial activity against Bacillus megaterium assessed as growth inhibition at 600 ug/ml by NCCLS […] method; settings: read-out: IZ
Colletotrichum falcatum [25] = experiment: Antifungal activity against Glomerella tucumanensis assessed as growth inhibition at 1200 ug/ml; settings: read-out: IZ
Exserohilum rostratum [26] = experiment: Antifungal activity against Setosphaeria rostrata assessed as growth inhibition at 600 ug/ml; settings: read-out: IZ
Bacillus pumilus [27] = experiment: Antibacterial activity against Bacillus pumilus assessed as growth inhibition at 900 ug/ml by NCCLS […] method; settings: read-out: IZ
Candida albicans [28] = experiment: Antifungal activity against Candida albicans assessed as growth inhibition at 600 ug/ml; settings: read-out: IZ
Colletotrichum falcatum [29] = experiment: Antifungal activity against Glomerella tucumanensis assessed as growth inhibition at 300 ug/ml; settings: read-out: IZ
Klebsiella aerogenes [30] = experiment: Antibacterial activity against Enterobacter aerogenes assessed as growth inhibition at 900 ug/ml by NCCLS […] method
Colletotrichum falcatum [31] = experiment: Antifungal activity against Glomerella tucumanensis assessed as growth inhibition at 900 ug/ml; settings: read-out: IZ
Exserohilum rostratum [32] = experiment: Antifungal activity against Setosphaeria rostrata assessed as growth inhibition at 1200 ug/ml; settings: read-out: IZ
Escherichia coli [33] = experiment: Antibacterial activity against Escherichia coli assessed as growth inhibition at 900 ug/ml by NCCLS […] method; settings: read-out: IZ
Candida albicans [34] = experiment: Antifungal activity against Candida albicans assessed as growth inhibition at 900 ug/ml; settings: read-out: IZ
Proteus vulgaris [35] = experiment: Antibacterial activity against Proteus vulgaris assessed as growth inhibition at 600 ug/ml by NCCLS […] method; settings: read-out: IZ
Fusarium oxysporum [36] = experiment: Antifungal activity against Fusarium oxysporum assessed as growth inhibition at 900 ug/ml; settings: read-out: IZ

## COc1ccc2c(OCCCN3CCN(Cc4ccc(F)cc4F)CC3)c(-c3ccccc3)c(=O)oc2c1
Streptococcus pyogenes [1]
  zone of inhibition at 600 µg/mL: 5.3 mm
Klebsiella pneumoniae [2]
  zone of inhibition at 900 µg/mL: 6.34 mm
Candida albicans [3]
  zone of inhibition at 1200 µg/mL: 18.2 mm
Escherichia coli [4]
  zone of inhibition at 600 µg/mL: 2.6 mm
Candida albicans [5]
  zone of inhibition at 300 µg/mL: 2.25 mm
Colletotrichum falcatum [6]
  zone of inhibition at 600 µg/mL: 5.56 mm
Fusarium oxysporum [7]
  zone of inhibition at 300 µg/mL: 4.2 mm
Bacillus subtilis [8]
  zone of inhibition at 600 µg/mL: 5.3 mm
Proteus mirabilis [9]
  zone of inhibition at 600 µg/mL: 2.65 mm
Proteus mirabilis [10]
  zone of inhibition at 900 µg/mL: 4.29 mm
Fusarium oxysporum [11]
  zone of inhibition at 600 µg/mL: 8.56 mm
Klebsiella aerogenes [12]
  growth inhibition (GI): inactive
Staphylococcus aureus [13]
  zone of inhibition at 600 µg/mL: 3.41 mm
Bacillus pumilus [14]
  zone of inhibition at 600 µg/mL: 5.02 mm
Exserohilum rostratum [15]
  zone of inhibition at 900 µg/mL: 14.2 mm
Proteus vulgaris [16]
  zone of inhibition at 900 µg/mL: 8.02 mm
Fusarium oxysporum [17]
  zone of inhibition at 1200 µg/mL: 28.1 mm
Klebsiella pneumoniae [18]
  zone of inhibition at 600 µg/mL: 3.24 mm
Priestia megaterium [19]
  zone of inhibition at 900 µg/mL: 8.98 mm
Streptococcus pyogenes [20]
  zone of inhibition at 900 µg/mL: 10.2 mm
Bacillus subtilis [21]
  zone of inhibition at 900 µg/mL: 10.7 mm
Staphylococcus aureus [22]
  zone of inhibition at 900 µg/mL: 6.48 mm
Exserohilum rostratum [23]
  zone of inhibition at 300 µg/mL: 5.02 mm
Priestia megaterium [24]
  zone of inhibition at 600 µg/mL: 4.48 mm
Colletotrichum falcatum [25]
  zone of inhibition at 1200 µg/mL: 25.9 mm
Exserohilum rostratum [26]
  zone of inhibition at 600 µg/mL: 7.68 mm
Bacillus pumilus [27]
  zone of inhibition at 900 µg/mL: 10.7 mm
Candida albicans [28]
  zone of inhibition at 600 µg/mL: 4.5 mm
Colletotrichum falcatum [29]
  zone of inhibition at 300 µg/mL: 3.24 mm
Klebsiella aerogenes [30]
  growth inhibition (GI): inactive
Colletotrichum falcatum [31]
  zone of inhibition at 900 µg/mL: 13.6 mm
Exserohilum rostratum [32]
  zone of inhibition at 1200 µg/mL: 26.8 mm
Escherichia coli [33]
  zone of inhibition at 900 µg/mL: 4.8 mm
Candida albicans [34]
  zone of inhibition at 900 µg/mL: 9.6 mm
Proteus vulgaris [35]
  zone of inhibition at 600 µg/mL: 4.2 mm
Fusarium oxysporum [36]
  zone of inhibition at 900 µg/mL: 16.9 mm
